Data published in PubChem BioAssay AID328 (DTP/NCI, 2004).
Where “and” joins values, the source holds several entries; their conditions need not be identical. Identical values can stand only once. Inconclusive results and toxic doses are left out. Rule for the calls: active = survival T/C of 150% or more; inactive = T/C below 125% in these data.

System: BDF1 mice, P388 leukemia ip, median survival T/C
Assay: NCI In Vivo Anticancer Drug Screen. Data for tumor model P388 Leukemia (intraperitoneal) in B6D2F1 (BDF1) mice
Conditions: endpoint: median survival time, higher = longer survival
Method in brief: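 Transplantable tumour in mice; compound vs vehicle dosing; survival scored; ratio of treated to control reported.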

[1] = dose: 25.0 mg/kg/injection, schedule: Q01DX009 (ip), vehicle: saline with Tween-80
[2] = dose: 50.0 mg/kg/injection, schedule: Q01DX009 (ip), vehicle: saline with Tween-80
[3] = dose: 100.0 mg/kg/injection, schedule: Q01DX009 (ip), vehicle: saline with Tween-80
[4] = dose: 100.0 mg/kg/injection, schedule: Q04DX003 (ip), vehicle: saline
[5] = dose: 200.0 mg/kg/injection, schedule: Q04DX003 (ip), vehicle: saline
[6] = dose: 100.0 mg/kg/injection, schedule: Q04DX003 (ip), vehicle: saline with Tween-80
[7] = dose: 200.0 mg/kg/injection, schedule: Q04DX003 (ip), vehicle: saline with Tween-80

Measured: T/C

NN(C(=O)c1ccccc1)c1ccccc1
inactive: dose: 12.5 mg/kg/injection, schedule: Q04DX003 (ip), vehicle: Klucel (hydroxypropylcellulose) (HPC) 100 % of control | dose: 25.0 mg/kg/injection, schedule: Q01DX009 (ip), vehicle: Klucel (hydroxypropylcellulose) (HPC) 110 % of control | dose: 25.0 mg/kg/injection, schedule: Q04DX003 (ip), vehicle: Klucel (hydroxypropylcellulose) (HPC) 100 % of control | dose: 50.0 mg/kg/injection, schedule: Q01DX009 (ip), vehicle: Klucel (hydroxypropylcellulose) (HPC) 100 % of control | dose: 50.0 mg/kg/injection, schedule: Q04DX003 (ip), vehicle: Klucel (hydroxypropylcellulose) (HPC) 104 % of control | dose: 75.0 mg/kg/injection, schedule: Q04DX003 (ip), vehicle: Klucel (hydroxypropylcellulose) (HPC) 104 % of control | dose: 115.0 mg/kg/injection, schedule: Q04DX003 (ip), vehicle: Klucel (hydroxypropylcellulose) (HPC) 104 % of control | dose: 170.0 mg/kg/injection, schedule: Q04DX003 (ip), vehicle: Klucel (hydroxypropylcellulose) (HPC) 109 % of control | dose: 255.0 mg/kg/injection, schedule: Q04DX003 (ip), vehicle: Klucel (hydroxypropylcellulose) (HPC) 105 % of control | dose: 385.0 mg/kg/injection, schedule: Q04DX003 (ip), vehicle: Klucel (hydroxypropylcellulose) (HPC) 110 % of control

Cc1cccc(N2CCN(CCC#N)CC2)c1
inactive: [1] 91 % of control | [2] 95 % of control | [3] 91 % of control

CCOP(=O)(OCC)OCCCN(CC)CC
inactive: dose: 25.0 mg/kg/injection, schedule: Q01DX009 (ip), vehicle: saline 118 % of control | dose: 50.0 mg/kg/injection, schedule: Q01DX009 (ip), vehicle: saline 114 % of control | dose: 50.0 mg/kg/injection, schedule: Q04DX003 (ip), vehicle: saline 100 % of control | dose: 100.0 mg/kg/injection, schedule: Q01DX009 (ip), vehicle: saline 100 % of control | [4] 107 % of control | dose: 200.0 mg/kg/injection, schedule: Q01DX009 (ip), vehicle: saline 89 % of control | [5] 110 % of control | dose: 300.0 mg/kg/injection, schedule: Q04DX003 (ip), vehicle: saline 105 % of control

CCOC(=O)c1ccc(NC(=O)Nc2nc(C)cs2)cc1
inactive: dose: 25.0 mg/kg/injection, schedule: Q01DX009 (ip), vehicle: other 103 % of control | dose: 100.0 mg/kg/injection, schedule: Q01DX009 (ip), vehicle: other 99 % of control

C/C(=N\NC(=O)C(=O)N/N=C(\C)c1ccccc1)c1ccccc1
inactive: [2] 96 % of control | [3] 91 % of control

C1CSCCSCCCSCCSC1
inactive: [1] 98 % of control | [2] 102 % of control | [3] 118 % of control

C=C(C)C(=O)O[C@H]1CC2=C[C@@H](C[C@@]3(C)O[C@@H]3[C@H]3OC(=O)C(=C)[C@@H]31)OC2=O
inactive: dose: 2.2 mg/kg/injection, schedule: Q01DX010 (ip), vehicle: carboxymethylcellulose (CMC) 113 % of control | dose: 2.5 mg/kg/injection, schedule: Q01DX009 (ip), vehicle: saline + alcohol 109 % of control | dose: 3.3 mg/kg/injection, schedule: Q01DX010 (ip), vehicle: carboxymethylcellulose (CMC) 118 % of control | dose: 5.0 mg/kg/injection, schedule: Q01DX010 (ip), vehicle: carboxymethylcellulose (CMC) 113 % of control | dose: 7.5 mg/kg/injection, schedule: Q01DX010 (ip), vehicle: saline 118 % of control | dose: 10.0 mg/kg/injection, schedule: Q01DX009 (ip), vehicle: saline 120 % of control | dose: 15.0 mg/kg/injection, schedule: Q01DX010 (ip), vehicle: saline 109 % of control | dose: 20.0 mg/kg/injection, schedule: Q01DX009 (ip), vehicle: saline + alcohol 122 % of control | dose: 30.0 mg/kg/injection, schedule: Q01DX010 (ip), vehicle: carboxymethylcellulose (CMC) 115 % of control | dose: 30.0 mg/kg/injection, schedule: Q01DX010 (ip), vehicle: saline 118 % of control | dose: 60.0 mg/kg/injection, schedule: Q01DX010 (ip), vehicle: saline 90 % of control
active: dose: 7.5 mg/kg/injection, schedule: Q01DX010 (ip), vehicle: carboxymethylcellulose (CMC) 152 % of control | dose: 15.0 mg/kg/injection, schedule: Q01DX010 (ip), vehicle: carboxymethylcellulose (CMC) 157 % of control | dose: 40.0 mg/kg/injection, schedule: Q01DX009 (ip), vehicle: saline 160 % of control

C=C1CCN2CCCC12 (stereo unspecified)
inactive: dose: 20.0 mg/kg/injection, schedule: Q01DX010 (ip), vehicle: carboxymethylcellulose (CMC) 110 % of control | dose: 40.0 mg/kg/injection, schedule: Q01DX010 (ip), vehicle: carboxymethylcellulose (CMC) 100 % of control | dose: 80.0 mg/kg/injection, schedule: Q01DX010 (ip), vehicle: carboxymethylcellulose (CMC) 110 % of control

C=CCOCC(O)CN(CCCC)CCCC (stereo unspecified)
inactive: dose: 12.5 mg/kg/injection, schedule: Q01DX009 (ip), vehicle: saline with Tween-80 95 % of control | [1] 95 % of control | [2] 105 % of control

CCCCNC(C)(C)C(SS)c1cccs1 (stereo unspecified)
inactive: dose: 100.0 mg/kg/injection, schedule: Q04DX003 (ip), vehicle: other 100 % of control | dose: 200.0 mg/kg/injection, schedule: Q04DX003 (ip), vehicle: other 100 % of control

CCCCCCCCCCCC[n+]1ccc2ccccc2c1
inactive: dose: 1.0 mg/kg/injection, schedule: Q01DX010 (ip), vehicle: saline 115 % of control

CCCc1nn2c(-c3ccccc3)nnc2o1
inactive: [6] 110 % of control | [7] 115 % of control | dose: 400.0 mg/kg/injection, schedule: Q04DX003 (ip), vehicle: saline with Tween-80 110 % of control

Cc1cc(O)c2c(c1O)C(=O)c1ccccc1C2=O
inactive: [4] 91 % of control | [5] 95 % of control | dose: 400.0 mg/kg/injection, schedule: Q04DX003 (ip), vehicle: saline 95 % of control

CCOC(=O)C(=O)c1c[nH]c2ccccc12
inactive: dose: 50.0 mg/kg/injection, schedule: Q04DX003 (ip), vehicle: saline with Tween-80 90 % of control | dose: 100.0 mg/kg/injection, schedule: Q01DX009 (ip), vehicle: Klucel (hydroxypropylcellulose) (HPC) 109 % of control | [6] 104 % of control | dose: 200.0 mg/kg/injection, schedule: Q01DX009 (ip), vehicle: Klucel (hydroxypropylcellulose) (HPC) 90 % of control | [7] 100 % of control | dose: 400.0 mg/kg/injection, schedule: Q01DX009 (ip), vehicle: Klucel (hydroxypropylcellulose) (HPC) 109 % of control

CCCCCCCN(CCCCCCC)CC(O)c1cc2ccccc2c2cnccc12 (stereo unspecified)
inactive: dose: 75.0 mg/kg/injection, schedule: Q04DX003 (ip), vehicle: saline with Tween-80 104 % of control | dose: 150.0 mg/kg/injection, schedule: Q04DX003 (ip), vehicle: saline with Tween-80 113 % of control | dose: 300.0 mg/kg/injection, schedule: Q04DX003 (ip), vehicle: saline with Tween-80 95 % of control

COC1CC(C)C(OC)C2=CC(=O)C=C(NC(=O)/C(C)=C/C=C\C(C)C(OC(N)=O)/C(C)=C\C(C)C1OC)C2=O (stereo unspecified)
active: dose: 5.0 mg/kg/injection, schedule: Q01DX009 (ip), vehicle: saline + alcohol 150 % of control | dose: 10.0 mg/kg/injection, schedule: Q01DX009 (ip), vehicle: saline + alcohol 171 % of control

O=C(Nc1cccc(C2=NCCCN2)c1)Nc1ccc(NC(=O)Nc2cccc(C3=NCCCN3)c2)c(Cl)c1
active: dose: 10.0 mg/kg/injection, schedule: Q01DX009 (ip), vehicle: saline with Tween-80 227 % of control | dose: 11.0 mg/kg/injection, schedule: Q04DX003 (ip), vehicle: saline with Tween-80 182 % of control | dose: 17.0 mg/kg/injection, schedule: Q04DX003 (ip), vehicle: saline with Tween-80 217 % of control | dose: 20.0 mg/kg/injection, schedule: Q01DX009 (ip), vehicle: saline with Tween-80 204 % of control | dose: 26.0 mg/kg/injection, schedule: Q04DX003 (ip), vehicle: saline with Tween-80 195 % of control and 209 % of control | dose: 40.0 mg/kg/injection, schedule: Q04DX003 (ip), vehicle: saline with Tween-80 272 % of control | dose: 60.0 mg/kg/injection, schedule: Q04DX003 (ip), vehicle: saline with Tween-80 272 % of control

C=CC(=O)NC(Cc1ccccc1)C(=O)O (stereo unspecified)
inactive: [2] 102 % of control | [3] 98 % of control | dose: 200.0 mg/kg/injection, schedule: Q01DX009 (ip), vehicle: saline with Tween-80 99 % of control

CC12C=CC(=O)C=C1CCC1C2C(O)CC2(C)C1CCC2(O)C(=O)COC(=O)Cc1ccc(N(CCCl)CCCl)cc1 (stereo unspecified)
inactive: dose: 3.5 mg/kg/injection, schedule: Q01DX009 (ip), vehicle: saline 97 % of control | dose: 7.0 mg/kg/injection, schedule: Q01DX009 (ip), vehicle: saline 97 % of control | dose: 14.0 mg/kg/injection, schedule: Q01DX009 (ip), vehicle: saline 118 % of control
